Test results published in PubChem BioAssay (NCI).
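These data come from cells grown in 96-well plates and exposed to compound for 48 hours at five concentrations. TGI: total growth inhibition.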

Assays:
Test in all cases: DTP human tumour cell line panel, 48 h
[1] = tested on: 786-0 renal
[2] = tested on: A498 renal
[3] = tested on: A549 NSCLC
[4] = tested on: ACHN renal
[5] = tested on: BT-549 breast
[6] = tested on: CAKI-1 renal
[7] = tested on: CCRF-CEM leukemia
[8] = tested on: COLO 205 colon
[9] = tested on: DU-145 prostate
[10] = tested on: EKVX NSCLC
[11] = tested on: HCC-2998 colon
[12] = tested on: HCT-116 colon
[13] = tested on: HCT-15 colon
[14] = tested on: HL-60(TB) leukemia
[15] = tested on: HOP-62 NSCLC
[16] = tested on: HOP-92 NSCLC
[17] = tested on: HS 578T breast
[18] = tested on: IGROV1 ovarian
[19] = tested on: K-562 leukemia
[20] = tested on: KM12 colon
[21] = tested on: LOX IMVI melanoma
[22] = tested on: M14 melanoma
[23] = tested on: MALME-3M melanoma
[24] = tested on: MCF7 breast
[25] = tested on: MDA-MB-231 breast
[26] = tested on: MDA-MB-435
[27] = tested on: MDA-N
[28] = tested on: MOLT-4 leukemia
[29] = tested on: NCI-H226 lung
[30] = tested on: NCI-H23 lung
[31] = tested on: NCI-H460 lung
[32] = tested on: NCI-H522 lung
[33] = tested on: NCI/ADR-RES ovarian
[34] = tested on: OVCAR-3 ovarian
[35] = tested on: OVCAR-5 ovarian
[36] = tested on: OVCAR-8 ovarian
[37] = tested on: PC-3 prostate
[38] = tested on: RXF 393 renal
[39] = tested on: SF-268 CNS
[40] = tested on: SF-295 CNS
[41] = tested on: SF-539 CNS
[42] = tested on: SK-MEL-2 melanoma
[43] = tested on: SK-MEL-28 melanoma
[44] = tested on: SK-OV-3 ovarian
[45] = tested on: SN12C renal
[46] = tested on: SNB-19 CNS
[47] = tested on: SNB-75 CNS
[48] = tested on: SR leukemia
[49] = tested on: SW-620 colon
[50] = tested on: T-47D breast
[51] = tested on: TK-10 renal
[52] = tested on: U251 CNS
[53] = tested on: UACC-257 melanoma
[54] = tested on: UACC-62 melanoma
[55] = tested on: UO-31 renal
[56] = tested on: HT29 colon
[57] = tested on: OVCAR-4 ovarian
[58] = tested on: RPMI-8226 leukemia
[59] = tested on: SK-MEL-5 melanoma

Measured: TGI

Cc1ccc(C)c(COCCOCn2cc(Br)c(N)nc2=O)c1
not listed: [56] | [57] | [58] | [59]
> 100 µM: all other assays above

S=c1nc2[nH]c3ccc(Br)cc3c2n[nH]1
30.7 µM: [27]
69.3 µM: [48]
38.4 µM: [26]
90 µM: [42]
79.7 µM: [21]
94.9 µM: [47]
50.5 µM: [14]
44.4 µM: [24]
not listed: [4] | [7] | [15] | [30] | [40]
> 100 µM: all other assays above
